From patent US20230339889A1, “DERIVATIVES OF 2-OXO-N-(4-(PYRIMIDIN-4-YLOXY/THIO)PHENYL)-1,2-DIHYDROPYRIDINE-3-CARBOXAMIDE FOR USE AS PROTEIN KINASE INHIBITORS FOR THERAPY” (AUCENTRA THERAPEUTICS PTY LTD, priority 2020, published 2023)

Assays:
MV4-11 = assay: Proliferation assay (MTT, leukaemia cancer cell line); format: cell-based; settings: Homo sapiens; 1 µM compound, MV4-11 cells
Text: Compounds from Example 1 were subjected to standard resazurin and MTT assays on solid tumour and leukaemia cancer cell lines, respectively, as previously reported (Wang S et al., J Med Chem 47:1662-1675, 2004 and Diab S et al., CheMedChem 9:962-972, 2014).

FLT3-ITD = assay: ADP Glo Kinase assay; format: biochemical; settings: 1 µM compound
Method: (§1) Inhibition of CDKs and FLT3 were determined using ADP Glo Kinase assays, as previously described in International Patent Publication No WO 2017/020065.

TYRO3 = molecular target: T1, TYRO3 (Homo sapiens, UniProt Q06418); assay: Filter-binding radiometric kinase activity assay (KinaseProfiler, Eurofins); format: biochemical; settings: 1 µM compound; read-out: % Residual enzymatic activity at 1 µM TYRO3
T1 construct: purchased Eurofins Discovery (Kinase Profiler service)
T1 sequence (Q06418 41-890): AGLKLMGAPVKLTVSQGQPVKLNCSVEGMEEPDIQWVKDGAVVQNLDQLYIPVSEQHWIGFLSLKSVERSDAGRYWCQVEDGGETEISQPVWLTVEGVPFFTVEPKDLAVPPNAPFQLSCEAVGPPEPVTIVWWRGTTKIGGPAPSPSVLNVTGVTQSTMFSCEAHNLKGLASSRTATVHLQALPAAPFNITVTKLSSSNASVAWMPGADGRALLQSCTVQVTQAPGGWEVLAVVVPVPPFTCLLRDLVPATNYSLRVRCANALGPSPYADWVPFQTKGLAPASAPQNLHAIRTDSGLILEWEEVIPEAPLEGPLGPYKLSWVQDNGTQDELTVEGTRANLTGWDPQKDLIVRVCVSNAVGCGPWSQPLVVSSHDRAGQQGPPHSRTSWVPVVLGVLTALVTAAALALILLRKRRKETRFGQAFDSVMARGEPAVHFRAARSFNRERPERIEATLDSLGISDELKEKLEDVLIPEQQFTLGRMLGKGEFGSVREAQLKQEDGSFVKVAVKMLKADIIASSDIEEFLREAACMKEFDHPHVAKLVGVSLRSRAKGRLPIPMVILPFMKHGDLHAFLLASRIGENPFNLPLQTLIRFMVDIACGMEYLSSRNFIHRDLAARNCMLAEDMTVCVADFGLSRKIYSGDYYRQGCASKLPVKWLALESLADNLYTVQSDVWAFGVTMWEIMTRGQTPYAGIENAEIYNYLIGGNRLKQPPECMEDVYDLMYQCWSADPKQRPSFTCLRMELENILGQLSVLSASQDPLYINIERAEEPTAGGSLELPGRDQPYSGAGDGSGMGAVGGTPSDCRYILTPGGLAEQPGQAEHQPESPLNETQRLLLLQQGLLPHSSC
Method: (§2) Filter-binding radiometric kinase activity assay (Kinase Profiler™) from Eurofins Discovery was used to determine the % of inhibition and/or IC50 values. […] The reaction is initiated by the addition of the Mg/ATP mixture. After incubation for 40 minutes at room temperature, the reaction is stopped by the addition of phosphoric acid to a concentration of 0.5%. 10 µL of the reaction is then spotted onto a P30 filter mat and washed four times for 4 minutes in 0.425% phosphoric acid and once in methanol prior to drying and scintillation counting. The IC50 values were derived by fitting a sigmoidal dose-response curve to a plot of assay readout over inhibitor concentration. All fits were computed with the GraphPad Prism Software (San Diego, CA, United States of America). Ki values were derived from IC5o values using Cheng Prusoff equation (Cheng Y et al., Biochem Pharmacol 22(23):3099-3108, 1973).

AXL = molecular target: T2, AXL (Homo sapiens, UniProt P30530); assay: as above; format: biochemical; settings: 1 µM compound; read-out: % Residual enzymatic activity at 1 µM AXL
T2 construct: purchased Eurofins Discovery (Kinase Profiler service)
T2 sequence (P30530 26-894): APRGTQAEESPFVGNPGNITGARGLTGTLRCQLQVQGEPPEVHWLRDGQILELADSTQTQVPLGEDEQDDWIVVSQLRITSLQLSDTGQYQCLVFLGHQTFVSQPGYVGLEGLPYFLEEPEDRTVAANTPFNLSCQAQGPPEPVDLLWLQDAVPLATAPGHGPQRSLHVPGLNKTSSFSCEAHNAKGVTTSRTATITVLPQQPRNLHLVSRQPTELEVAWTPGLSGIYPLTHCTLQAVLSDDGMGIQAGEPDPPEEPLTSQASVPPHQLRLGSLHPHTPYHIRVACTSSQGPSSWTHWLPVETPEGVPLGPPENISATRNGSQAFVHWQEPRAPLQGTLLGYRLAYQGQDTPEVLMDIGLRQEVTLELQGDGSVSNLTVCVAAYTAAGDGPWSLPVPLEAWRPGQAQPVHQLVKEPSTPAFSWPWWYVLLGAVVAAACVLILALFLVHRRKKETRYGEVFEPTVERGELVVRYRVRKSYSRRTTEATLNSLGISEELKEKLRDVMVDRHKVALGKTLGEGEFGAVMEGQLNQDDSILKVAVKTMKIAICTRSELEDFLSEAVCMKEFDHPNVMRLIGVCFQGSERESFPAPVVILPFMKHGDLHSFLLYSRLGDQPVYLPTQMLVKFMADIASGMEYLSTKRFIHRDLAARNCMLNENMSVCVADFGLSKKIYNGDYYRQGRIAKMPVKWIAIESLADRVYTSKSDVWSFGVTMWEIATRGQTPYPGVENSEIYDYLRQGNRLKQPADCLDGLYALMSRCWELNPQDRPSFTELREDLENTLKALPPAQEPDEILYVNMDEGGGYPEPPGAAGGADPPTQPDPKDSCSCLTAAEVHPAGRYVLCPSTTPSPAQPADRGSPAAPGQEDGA
Method: as §2

Mer = molecular target: T3, Mer (Homo sapiens, UniProt Q12866); assay: as above; format: biochemical; settings: 1 µM compound; read-out: % Residual enzymatic activity at 1 µM Mer
T3 construct: purchased Eurofins Discovery (Kinase Profiler service)
T3 sequence (Q12866 21-999): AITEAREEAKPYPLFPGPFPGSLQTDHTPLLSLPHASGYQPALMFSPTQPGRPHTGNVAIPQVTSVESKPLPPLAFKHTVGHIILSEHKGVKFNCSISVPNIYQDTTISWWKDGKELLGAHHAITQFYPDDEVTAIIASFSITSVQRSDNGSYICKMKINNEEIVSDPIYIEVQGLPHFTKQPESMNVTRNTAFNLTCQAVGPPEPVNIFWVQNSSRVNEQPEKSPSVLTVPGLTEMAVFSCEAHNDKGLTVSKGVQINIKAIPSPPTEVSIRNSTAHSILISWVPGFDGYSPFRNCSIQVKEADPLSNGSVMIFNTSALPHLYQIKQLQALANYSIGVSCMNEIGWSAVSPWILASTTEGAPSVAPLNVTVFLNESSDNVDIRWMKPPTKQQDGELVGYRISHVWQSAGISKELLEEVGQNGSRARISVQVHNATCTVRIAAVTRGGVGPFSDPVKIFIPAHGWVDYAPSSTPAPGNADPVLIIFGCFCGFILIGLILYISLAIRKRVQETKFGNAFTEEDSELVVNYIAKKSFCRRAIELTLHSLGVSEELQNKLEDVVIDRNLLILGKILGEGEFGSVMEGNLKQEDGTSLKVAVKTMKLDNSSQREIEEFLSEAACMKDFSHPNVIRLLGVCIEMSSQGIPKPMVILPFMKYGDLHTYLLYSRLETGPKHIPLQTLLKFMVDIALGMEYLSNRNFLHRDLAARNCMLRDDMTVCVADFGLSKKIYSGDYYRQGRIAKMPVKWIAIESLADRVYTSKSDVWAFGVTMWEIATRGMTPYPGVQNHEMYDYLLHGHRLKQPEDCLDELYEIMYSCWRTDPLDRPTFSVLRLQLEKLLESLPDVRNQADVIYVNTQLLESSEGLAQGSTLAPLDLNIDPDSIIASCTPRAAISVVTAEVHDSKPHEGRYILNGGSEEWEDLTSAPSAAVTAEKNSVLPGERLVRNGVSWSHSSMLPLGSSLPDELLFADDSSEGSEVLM
Method: as §2

MET = molecular target: T4, MET (Homo sapiens, UniProt P08581); assay: as above; format: biochemical; settings: 1 µM compound; read-out: % Residual enzymatic activity at 1 µM MET
T4 construct: purchased Eurofins Discovery (Kinase Profiler service)
Method: as §2

CDK2E = CDK2E (Homo sapiens, UniProt P24941); assay: ADP Glo Kinase assay; format: biochemical; settings: 1 µM compound; read-out: % Residual enzymatic activity at 1 µM CDK2E
Method: as §1

T4 sequence (P08581 25-1390): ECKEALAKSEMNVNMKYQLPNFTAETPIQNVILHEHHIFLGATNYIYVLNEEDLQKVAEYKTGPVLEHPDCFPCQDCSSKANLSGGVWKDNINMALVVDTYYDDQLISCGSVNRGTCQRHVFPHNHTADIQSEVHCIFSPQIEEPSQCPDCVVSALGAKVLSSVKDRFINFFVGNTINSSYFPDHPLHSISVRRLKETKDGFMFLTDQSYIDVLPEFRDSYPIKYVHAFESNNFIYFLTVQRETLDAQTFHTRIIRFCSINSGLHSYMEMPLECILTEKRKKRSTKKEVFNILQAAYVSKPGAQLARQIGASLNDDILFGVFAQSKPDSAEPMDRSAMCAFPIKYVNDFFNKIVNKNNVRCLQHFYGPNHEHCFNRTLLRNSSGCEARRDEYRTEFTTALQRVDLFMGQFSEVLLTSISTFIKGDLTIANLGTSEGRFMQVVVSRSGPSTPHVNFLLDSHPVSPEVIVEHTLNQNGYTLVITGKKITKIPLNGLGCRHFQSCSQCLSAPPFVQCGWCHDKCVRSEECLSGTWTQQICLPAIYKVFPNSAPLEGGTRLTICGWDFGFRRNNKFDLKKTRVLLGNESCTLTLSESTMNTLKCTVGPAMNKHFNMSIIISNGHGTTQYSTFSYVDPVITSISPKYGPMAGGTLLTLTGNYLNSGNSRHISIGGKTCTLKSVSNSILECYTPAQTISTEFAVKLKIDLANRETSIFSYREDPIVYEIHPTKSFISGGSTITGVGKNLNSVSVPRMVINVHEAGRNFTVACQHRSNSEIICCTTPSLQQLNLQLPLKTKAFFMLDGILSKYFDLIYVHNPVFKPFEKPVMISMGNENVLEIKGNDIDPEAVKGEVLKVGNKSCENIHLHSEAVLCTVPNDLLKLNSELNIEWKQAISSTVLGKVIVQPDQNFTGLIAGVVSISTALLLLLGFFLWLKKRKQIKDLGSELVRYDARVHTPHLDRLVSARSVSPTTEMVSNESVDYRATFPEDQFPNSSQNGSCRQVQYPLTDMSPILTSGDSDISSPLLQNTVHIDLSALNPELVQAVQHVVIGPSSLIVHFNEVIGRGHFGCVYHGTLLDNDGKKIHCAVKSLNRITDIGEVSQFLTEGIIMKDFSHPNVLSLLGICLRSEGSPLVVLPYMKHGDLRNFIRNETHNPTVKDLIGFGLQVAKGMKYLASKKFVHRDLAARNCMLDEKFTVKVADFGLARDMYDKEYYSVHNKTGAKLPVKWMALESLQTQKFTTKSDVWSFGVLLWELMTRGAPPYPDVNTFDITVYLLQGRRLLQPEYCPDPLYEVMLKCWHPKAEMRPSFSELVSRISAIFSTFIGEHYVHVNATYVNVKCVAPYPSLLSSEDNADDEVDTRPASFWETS

% Residual enzymatic activity at 1 µM FLT3-ITD (FLT3-ITD) [%]	remaining activity at 1 µM (TYRO3) [%]	remaining activity at 1 µM (AXL) [%]	remaining activity at 1 µM (Mer) [%]	remaining activity at 1 µM (MET) [%]	remaining activity at 1 µM (CDK2E) [%]	SMILES	activity at 1 µM (MV4-11) [%]
43	63	57	89	93		Nc1ncnc(Oc2ccc(NC(=O)c3cccn(-c4ccc(F)cc4)c3=O)cc2Cl)c1F [Cmpd 22, N-(4-((6-amino-5-fluoropyrimidin-4-yl)oxy)-3-chlorophenyl)-1-(4-fluorophenyl)-2-oxo-1,2-dihydropyridine-3-carboxamide]	3
51	63	67	95	98		Nc1ncnc(Oc2ccc(NC(=O)c3cccn(-c4ccc(F)cc4)c3=O)cc2Cl)c1Cl [Cmpd 23, N-(4-((6-amino-5-chloropyrimidin-4-yl)oxy)-3-chlorophenyl)-1-(4-fluorophenyl)-2-oxo-1,2-dihydropyridine-3-carboxamide]	1
	2	31	54	4	93	Nc1ncnc(Oc2cc(F)c(NC(=O)c3cccn(-c4ccc(F)cc4)c3=O)cc2F)c1F [Cmpd 20, N-(4-((6-amino-5-fluoropyrimidin-4-yl)oxy)-2,5-difluorophenyl)-1-(4-fluorophenyl)-2-oxo-1,2-dihydropyridine-3-carboxamide]	5
	50	69	92	68	90	Nc1ncnc(Oc2ccc(NC(=O)c3cccn(-c4ccc(F)cc4)c3=O)c(Cl)c2)c1F [Cmpd 38, N-(4-((6-amino-5-fluoropyrimidin-4-yl)oxy)-2-chlorophenyl)-1-(4-fluorophenyl)-2-oxo-1,2-dihydropyridine-3-carboxamide]	43

Second part, the molecule before the results:

SMILES	% Residual enzymatic activity at 1 µM FLT3-ITD (FLT3-ITD) [%]	remaining activity at 1 µM (TYRO3) [%]	remaining activity at 1 µM (AXL) [%]	remaining activity at 1 µM (Mer) [%]	remaining activity at 1 µM (MET) [%]	remaining activity at 1 µM (CDK2E) [%]	activity at 1 µM (MV4-11) [%]
Nc1ncnc(Oc2ccc(NC(=O)c3cccn(-c4ccc(OC(F)(F)F)cc4)c3=O)cc2F)c1F [Cmpd 8, N-(4-((6-amino-5-fluoropyrimidin-4-yl)oxy)-3-fluorophenyl)-2-oxo-1-(4-(trifluoromethoxy)phenyl)-1,2-dihydropyridine-3-carboxamide]	91	111	112	100	85		
Nc1ncnc(Oc2ccc(NC(=O)c3cccn(-c4ccc(C(F)(F)F)cc4)c3=O)cc2F)c1F [Cmpd 9, N-(4-((6-amino-5-fluoropyrimidin-4-yl)oxy)-3-fluorophenyl)-2-oxo-1-(4-(trifluoromethyl)phenyl)-1,2-dihydropyridine-3-carboxamide]	88	106	105	85	64		
Nc1ncnc(Oc2ccc(NC(=O)c3cccn(-c4ccc(F)cc4)c3=O)c(F)c2F)c1Cl [Cmpd 13, N-(4-((6-amino-5-chloropyrimidin-4-yl)oxy)-2,3-difluorophenyl)-1-(4-fluorophenyl)-2-oxo-1,2-dihydropyridine-3-carboxamide]	74	87	67	91	94		7
Nc1ncnc(Oc2ccc(NC(=O)c3cccn(-c4ccc(F)cc4)c3=O)c(Cl)c2)c1Cl [Cmpd 37, N-(4-((6-amino-5-chloropyrimidin-4-yl)oxy)-2-chlorophenyl)-1-(4-fluorophenyl)-2-oxo-1,2-dihydropyridine-3-carboxamide]		39	78	87	88	96	48
Cc1ccc(-n2cccc(C(=O)Nc3ccc(Oc4ncnc(N)c4F)c(F)c3)c2=O)cc1 [Cmpd 35, N-(4-((6-amino-5-fluoropyrimidin-4-yl)oxy)-3-fluorophenyl)-2-oxo-1-(p-tolyl)-1,2-dihydropyridine-3-carboxamide]		14	70	99	60	97	6
